In US6627601B2, “Neuroprotective peptides and uses thereof” (Protarga, Inc., priority 1998, dated 2003):
Read-outs that look alike come from different tables or passages of the source.

How the values were obtained:
[1] = test system: rat brain hippocampal cells; test: glutamate induced neurotoxicity in hippocampal neuron cultures; type: cell-based; conditions: 3 days of culture
Experimental: The effect of the neuroprotective peptides was tested on rat brain hippocampal cells. Rat brain hippocampi were isolated by dissection of 18 day old rat fetuses. […] The cultures were then incubated for 30 min at 37° C. after which glutamate was added at the concentrations indicated. Cells were counted after 3 days of culture; healthy cells and total cells were counted.

[2] = fura-2 calcium chelation assay in cells loaded with fura-2 and calcium; type: cell-based
Experimental: Any of the foregoing peptides can be tested for calcium binding by well known assays of calcium chelation (see, e.g. Cornell-Bell et al., Science 247:470-473, 1990; Cornell-Bell et al., Cell Calcium 12:185-204, 1991). For example, one preferred method employs the calcium sensitive dye fura-2 to measure the chelation of calcium by the isolated peptides. In such an assay, cells are loaded with fura-2 and calcium. […] An isolated peptide then is added to the cells and the diminution of fura-2 fluorescence is determined. Dose response experiments can be performed to determine the concentration at which the isolated peptide completely eliminates fura-2 fluorescence. For example, the isolated peptide of SEQ ID NO:4 completely eliminates fura-2 fluorescence at a concentration of 1 pg/ml in the cell culture medium.
Peptides, including variant peptides, can be tested for retention for any of the foregoing properties. For example, the peptides can be tested for in vitro properties initially to determine which of the variant peptides retain the ability to bind calcium ions and/or stimulate the expression of transcription factors. In vitro assays of calcium binding include contacting the peptide with an environment which contains calcium, such as a cell preloaded with calcium and a fluorescent calcium-sensitive dye, and determining the calcium binding of the peptide Peptides which retain one or more of these properties can then be used in in vivo assays of neuroprotection such as the Mongolian gerbil assay described below. Neuroprotective peptides or their variants which are conjugated to targeting compounds, labels, blood-brain barrier carriers and the like can be tested for retention of neuroprotective activity as well as for the activity of the conjugated compound (e.g., appropriate targeting, detectable labeling, ability to cross the blood-brain barrier, etc.).

neurons = conditions: compared with 68 kilodalton parent protein; Shashoua et al., 1992; cited from earlier work
[3] = test system: AP-1 transcription factor; test: EMSA of AP-1 in nuclear extracts of neuroblastoma cultures; type: cell-based, mouse
Experimental: (§1) It was determined that NMI 9236 can turn on specific genes related to neuronal growth in neuroblastoma tissue culture experiments.
(§2) The activation of specific transcription factors was assayed using an electrophoretic mobility shift assay (EMSA, for review see: Kerr, Meth. Enzymol 254:619-632, 1995). Nuclear extracts were prepared from stimulated neuroblastoma cell cultures (10^7 cells/sample) using classical nuclear extraction protocols (Dignam et al., Nucl. Acids Res. 11: 1475-1489, 1983; Prywes and Roeder, Cell 47: 777-784, 1986). A 0.5 pmol aliquot of a synthetic ^32P labeled oligomer duplex (with a sequence known to bind a specific transcription factor, see Table 2) was mixed with 3 μg of nuclear extract protein, and the mixture incubated at room temperature for 20 minutes. Subsequent electrophoresis under non-denaturing conditions through 4% polyacrylamide gels were used to separate and resolve the high MW protein/DNA complexes (transcription factor/DNA oligomer duplex) form low MW uncomplexed DNA oligomers. Autoradiography was used to visualize and quantify the complexes formed (see FIG. 6).
Using the electrophoretic mobility shift assay (EMSA) we tested for changes in concentration of transcription factors AP-1 and NF-IL6 in neuroblastoma nuclei as a function of stimulation by peptide NMI-9236. These two factors are well known to function in cell proliferation and differentiation, and to be activated by protein kinase-C. […] Identification of the two observed bands as Jun/Fos heterodimers and Jun/Jun homodimers was based on their electrophoretic migration, as well as antibody studies (data not shown).

[4] = test system: NF-IL6 transcription factor; test: EMSA of NF-IL6 in nuclear extracts of neuroblastoma cultures; type: cell-based, mouse
Experimental: as §1, §2
Identification of the observed band as NF-IL6 ([…]) was based on its electrophoretic migration, as well as antibody studies (data not shown).

[5] = test system: CA1 and CA3 hippocampal neurons; test: histological cell density/survival of hippocampal neurons in gerbil brains after forebrain ischemia; type: in vivo, male Mongolian gerbil
Experimental: At the time of the sacrifice, each animal was deeply anesthetized and perfused transcardially with heparinized saline followed by paraformaldehyde (4%) in phosphate buffered saline. After fixation the brains were placed in 30% sucrose for 3 days, embedded in glutaraldehyde-gelatin, cut frozen into 30μ serial sections for morphometric analysis, and stained with cresyl violet. The cell densities per 1000 microns2 were determined by computer assisted counting of grey level images at 300× viewed through an Axioplan microscope. It was determined that a maximum of 62% of the hippocampal pyramidal cells survived the ischemia in the presence of NMI 9236 as compared to 4% survival for the control saline non-drug treated animals. All analyses were carried out blind.
At 8 days post surgery the gerbils were sacrificed, perfusion fixed with formalin, and each perfused brain was embedded in glutaraldehyde-gelatin. About 300 serial sections (40 microns thick) were cut from each frozen brain, and stained with cresyl violet. Cell morphometric analysis was carried out on one out of every 10 sections by computer-assisted cell density counting of grey level images viewed at 300× through an Axioplan microscope. Focused camera input (Sony CCD) from the microscope to the IBS video screen of the Zeiss IBAS/KONTRON Image analysis system was normalized and segmented before assessing cell number. The average cell density present per a 1000 micron^2 region of the CA1 and CA3 pyramidal cell layers for the left and right side of each were determined. The analysis was carried out blind.

[6] = test system: gerbil model for ischemic stroke (5 minute bilateral carotid occlusion); test: general locomotor activity (GLA) of gerbils after forebrain ischemia; type: in vivo, male Mongolian gerbil
Description: The gerbil (male Mongolian) has been widely used as an experimental model for studies of ischemic stroke because the brain blood supply is controlled by only two common carotid arteries. This unusual feature occurs in gerbils because they have an incomplete circle of Willis (Chandler et al., J. Pharmacol. Methods 14:137-146, 1985; Finkelstein et al., Restor. Neurol. Neurosci. 1:387-394, 1990; Levine and Sohn, Arch. Pathol. 87:315-317, 1969; Kahn, Neurology 22:510-515, 1972). A five minute bilateral carotid occlusion results in neuronal cell death that is predominantly localized in the CA1 subfield of the hippocampus. The CA1 neurons degenerate and virtually disappear by 7-8 days after ischemia (Akira, Res. in Immunol. 143:734-736 1992; Crain et al., Neurosci. 27:387-402, 1988). In addition, the gerbil model has the advantage that within one day after ischemia the animals increase by 100% to 200% their general locomotor activity. This readily measurable change can persist for at least eight days in most of the experimental animals (Akira, 1992; Kuroiwa et al., Neurosci. Lett. 122:141-144, 1991; Ohno et al., Eur. J Pharmacol. 193:357-361, 1991; Phillis, Brain Res. Bull. 23:467-470, 1989).
Male Mongolian gerbils were anesthetized with a mixture of isoflurane and oxygen using an inhalation apparatus (Stoelting Instrument Co.). An incision was made in the ventral neck and the common carotid arteries were isolated and occluded completely for a period of 5 minutes using microaneurysm clips. Next, the clips were removed and the incision sutured. The anesthesia was continued until the end of the i.v. injection and infusion period. Mean arterial blood pressure was monitored by a polyethylene catheter implanted in the left or right femoral […] during surgery. […]
GLA measurements were carried out in half hour sessions using the Stoelting Electronic Activity monitor (Shashoua et al., J. Med. Chem. 27:654-659, 1984; Jacob et al., J. Med. Chem. 30:1573-1576, 1987). Each gerbil's activity level was first assessed on days 3 and 1 prior to the experimental ischemia procedure to obtain a base line GLA data, then on days 1, 2, 5, and 7 after the carotid artery occlusion to determine efficacy of drug treatment. […]
Male Mongolian gerbils were anesthetized with a mixture of halothane and oxygen in Phase 1 of surgery and a cannula (an Alzet No. 2002 pump) was implanted subcutaneously in the midscapular region beneath the skin of the animal. […] All surgical procedures were carried out with a strict control of the temperature of each animal; rectal temperatures were monitored and heat was supplied via a temperature regulated heating pad. […]

[7] = 2 mM glutamate + 12 μg/ml peptide
[8] = 2 mM glutamate + 18 μg/ml peptide
[9] = NB2a mouse neuroblastoma cultures, 5-50 μg/ml
[10] = neuroblastoma cells treated for 20 hours
[11] = 1 mg/kg i.v. @ 1 hr post ischemia, day 8, n=3

Molecule: N[C@@H](CCC(=O)O)C(=O)O [glutamate, reference compound]
- % healthy ([1]; 1 mM glutamate alone): 51.5%
- Healthy cells ([1]; 1 mM glutamate alone): 35
- Total cells ([1]; 1 mM glutamate alone): 68
- % healthy ([1]; 2 mM glutamate alone): 40.8%
- Healthy cells ([1]; 2 mM glutamate alone): 62
- Total cells ([1]; 2 mM glutamate alone): 156

Molecule: D-F-A-I-D-A-P-E (DFAIDAPE) [SEQ ID NO:10]
- calcium chelation (in words) [2]: chelate calcium as tightly as the peptide of SEQ ID NO:3
- calcium chelation effectiveness relative to peptide of SEQ ID NO:4 ([2]; fura-2 fluorescence): about half as effective as the peptide of SEQ ID NO:4
- calcium chelation (in words) ([2]; listed as SEQ ID NO: 10): chelates calcium

Molecule: K-K-D-G-D-G-D-F-A-I-D-A-P-E (KKDGDGDFAIDAPE) [NMI 9236, 14 amino acid peptide]
- promotion of growth and sprouting of neurons (neurons): at least the same extent as its 68 kilodalton parent protein
- % healthy [1, 7]: 92%
- Healthy cells [1, 7]: 138
- Total cells [1, 7]: 150
- % healthy [1, 8]: 81.6%
- Healthy cells [1, 8]: 80
- Total cells [1, 8]: 98
- AP-1 activation, densitometric scans of the EMSA [3]: 3-5 fold
- activation of AP-1 relative to control ([3]; 30 min): less pronounced
- level of AP-1 in the nuclei of the cells [3, 9]: increase
- activation of AP-1 relative to control [3, 10]: strong activation
- activation of AP-1 relative to control ([3]; serum-free medium, 20 hours): very strong activation
- NF-IL6 activation, densitometric scan of the EMSA ([4]; 1 μg/ml, in comparison to control): 3-5 fold
- activation of NF-IL6 relative to control ([4]; 30 min): less pronounced
- level of NF-IL6 in the nuclei of the cells [4, 9]: increase
- activation of NF-IL6 relative to control [4, 10]: strong activation
- activation of NF-IL6 relative to control ([4]; serum-free medium, 20 hours): very strong activation
- Cell Density CA1-Hippocampal field [5, 11]: 13.3 ± 0.82 number of cells/1000 microns^2
- Cell Density CA3-Hippocampal field [5, 11]: 8.82 ± 0.42 number of cells/1000 microns^2
- neuronal loss in CA1/CA3 versus sham operated controls (in words) ([5]; 1 mg/kg i.v. bolus at 1 hr post ischemia): essentially all the cells remained intact
- survival of L-CA1 neurons ([5]; icv into left lateral ventricle, 8 days post-ischemia, left side): 52±12%
- survival of R-CA1 neurons ([5]; icv into left lateral ventricle, 8 days post-ischemia, right (unprotected) side): 4±2%
- L-CA1 cell density as % of level of sham operated control brain ([5]; icv, 8 days post surgery): about 50%
- L-CA1 cell density count ([5]; icv, 8 days post surgery, saline controls 0.6): 6.2 per 1000 micron^2
- R-CA1 cell density ([5]; icv, 8 days post surgery, stated comparable to saline controls): ~0.6 per 1000 micron^2
- maximum survival of hippocampal pyramidal cells after ischemia ([5]; in the presence of NMI 9236, 4% for control saline animals): ≤ 62%
- concentration at which the peptide completely eliminates fura-2 fluorescence ([2]; in the cell culture medium): 1 pg/mL
- average GLA, % of the day 1 data ([6]; 1 mg/kg i.v. (femoral vein) at 1 hour after occlusion, saline control 225%): 85%
- effect on GLA (in words) ([6]; i.v. injection at 10 minutes after the ischemic event, n=3): blocked the development of enhanced GLA
- GLA, % of own GLA one day prior to surgery ([6]; icv delivery by Alzet pump, 1 milligram per ml, 7 days pre- and 7 days post-ischemia, n=4): 80%
- GLA value ([6]; subcutaneous (s.c.) injection at 1 hour after the surgery): 200%
